# Tests used:
# [1] = SN-38 PK profile and tolerability in metastatic colorectal cancer patients treated with SCO-101 and FOLFIRI (Example 2); type: in vivo, human
# Description: Patients with metastatic colorectal cancer were included in a study and treated with a combination of SCO-101 and FOLFIRI (combination of irinotecan, 5-FU and leucovorin) in 14 day treatment cycles. Patients received varying doses of Irinotecan between 50% and 80% of the recommended dose of Irinotecan (180 mg/m^2) according to their individual tolerability, which is standard practise. On days 1, 2, 3, 4, 5 and 6 in each treatment cycle, patients received one fixed daily dose of 150 mg SCO-101 taken in the morning at least 30 minutes before ingestion of food. On day 5 to 7, patients received FOLFIRI as specified for Colorectal cancer combination regimen 2.
# Blood plasma samples were analysed for concentrations of SCO-101, irinotecan and SN-38 using Liquid Chromatography with Tandem Mass Spectrometric Detection (LC-MS/MS) bioanalytical method calibrated and validated in the rant 300 to 90.000 ng/ml. The method and system, including validation were according to industry standard. Data were analysed using commercially available software such as Win-Non-Lin (available from Certara inc.)
# A trial was setup to address the safety, tolerability, and efficacy of SCO-101 given orally for 6 days followed by FOLFIRI at varying doses from day 5 to 7, in a biweekly schedule, in patients with metastatic colorectal cancer who have formerly been treated with FOLFIRI and afterwards progressed. The first part of the study was a dose-finding study, where the impact of SCO-101 on the pharmacokinetics (PK) of SN-38 was studied.
# 12 patients from the dose-finding part of the study received 150 mg SCO-101 for 6 days and […] of the recommended dose of FOLFIRI. 6 of the patients had RAS wildtype tumors and these patients were subjected to further analysis.
# Blood for pharmacokinetic analysis was sampled from the patients were taken at 1, 2, 4, 8, 24, 48, and 96 hours after treatment with FOLFIRI and SCO-101.
# [2] = target: T1, BCRP (Homo sapiens, UniProt Q9UNQ0); assay: 3H-SN-38 uptake in HT29 SN-38 resistant cell monolayers (Example 6); type: cell-based
# T1 construct: endogenous in cells; host or cells: HT29 parental and HT29 SN38-resistant colorectal cancer cells
# T1 sequence (Q9UNQ0 1-655): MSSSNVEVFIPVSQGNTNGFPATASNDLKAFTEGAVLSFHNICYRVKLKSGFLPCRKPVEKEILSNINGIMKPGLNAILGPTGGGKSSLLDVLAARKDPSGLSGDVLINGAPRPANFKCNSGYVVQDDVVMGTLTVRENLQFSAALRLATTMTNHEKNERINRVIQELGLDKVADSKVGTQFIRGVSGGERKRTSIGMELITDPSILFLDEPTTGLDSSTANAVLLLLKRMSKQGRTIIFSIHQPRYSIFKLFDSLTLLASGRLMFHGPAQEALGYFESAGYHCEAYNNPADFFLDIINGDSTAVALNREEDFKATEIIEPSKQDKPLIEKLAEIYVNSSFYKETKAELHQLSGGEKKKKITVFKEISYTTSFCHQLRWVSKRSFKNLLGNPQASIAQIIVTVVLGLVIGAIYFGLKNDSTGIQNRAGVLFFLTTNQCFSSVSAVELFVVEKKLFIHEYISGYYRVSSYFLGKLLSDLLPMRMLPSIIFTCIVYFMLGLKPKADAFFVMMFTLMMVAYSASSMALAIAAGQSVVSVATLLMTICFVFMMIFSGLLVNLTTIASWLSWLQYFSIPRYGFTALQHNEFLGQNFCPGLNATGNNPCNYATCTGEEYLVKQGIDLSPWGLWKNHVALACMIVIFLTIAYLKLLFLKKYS
# Description: (§1) All treatments were investigated in three technical replicates (N=3). On the day of experimentation, the culture media was exchanged with 100 μL transport buffer (HBSS, 0.05% BSA, 10 mM HEPES, pH 7.4) and cells were incubated for 15 minutes at 37° C.
# (§2) Subsequently, the blank transport buffer was exchanged with 50 μL transport buffer containing the different compounds (in 2x of the final concentration) to be tested and incubated for 15 minutes at 37° C. The uptake experiment was started by adding 50 μL of ^3H-SN38 at a concentration of 2 μCi/mL to all wells (the resulting concentration of ^3H-SN38 during the experiment was 1 μCi/mL). The uptake experiment was stopped after 15 minutes of incubation at 37° C. by removing the transport buffer from all wells.
# (§3) The cell monolayers were subsequently washed twice by adding/removing ice-cold transport buffer twice and finally the cell monolayers were lysed by incubation in 100 μl of 0.1% TritonX-100 for 15 minutes at ambient temperature. Cell lysates were transferred to scintillation vials containing 2 mL of scintillation fluid (Ultima Gold, PerkinElmer). Each well was washed with 2×100 μL purified water (milliQ), which was also transferred to respective scintillation vials.
# [3] = target: T1, BCRP; assay: 3H-SN-38 uptake in HT29 parental cell monolayers (Example 6); type: cell-based
# Description: as §1, §2, §3
smiles,measurement,setting,value
O=C(Nc1cc(C(F)(F)F)cc(C(F)(F)F)c1)Nc1ccc(Br)cc1-c1nnn[nH]1 [SCO-101],Tolerability of the combined treatment,"[1]; SCO-101 in combination with FOLFIRI, metastatic colorectal cancer patients",well tolerated
same,Toxicity profile (adverse events),[1]; patients treated with SCO-101 and 90 mg irinotecan/m2 (50% FOLFIRI),only grade 1 and 2 adverse events
same,"Uptake of SN-38 in the presence vs absence of SCO-101, all seeded cell densities","[2]; 25 μM SCO-101, HT29 SN-38 resistant",increased uptake
same,Uptake of SN-38 relative to blank HBSS transport buffer control,"[2]; 25 μM test compound, HT29 SN-38 resistant, ANOVA α=0.05",significantly increased
same,EC50,"[2]; HT29 SN-38 res cell monolayers, read-out: Estimated EC50-value for increase in uptake of SN-38",9.8 µM
same,Uptake of SN-38 with increasing concentrations of SCO-101,"[2]; SCO-101 100 to 0.5 μM, HT29 SN-38 resistant",concentration-dependent increase
same,"Uptake of SN-38 in the presence vs absence of SCO-101, all seeded cell densities","[3]; 25 μM SCO-101, HT29 parental",increased uptake
same,Uptake of SN-38 relative to blank HBSS transport buffer control,"[3]; 25 μM test compound, HT29 parental, ANOVA α=0.05",significantly increased
same,EC50,"[3]; HT29 parental cell monolayers, read-out: Estimated EC50-value for increase in uptake of SN-38",9.1 µM
same,Uptake of SN-38 with increasing concentrations of SCO-101,"[3]; SCO-101 100 to 0.5 μM, HT29 parental",concentration-dependent increase
